Publication PMC12010006, “Subnanomolar MAS-related G protein-coupled receptor-X2/B2 antagonists with efficacy in human mast cells and disease models” (Signal Transduction and Targeted Therapy, 2025)

Columns and labels:
MRGPRX2 = molecular target: T1, MRGPRX2 (Homo sapiens, UniProt Q96LB1); assay: β-hexosaminidase release, LAD2 cells; assay type: cell-based; conditions: versus SP (0.3 µM)
T1 sequence (Q96LB1 1-330): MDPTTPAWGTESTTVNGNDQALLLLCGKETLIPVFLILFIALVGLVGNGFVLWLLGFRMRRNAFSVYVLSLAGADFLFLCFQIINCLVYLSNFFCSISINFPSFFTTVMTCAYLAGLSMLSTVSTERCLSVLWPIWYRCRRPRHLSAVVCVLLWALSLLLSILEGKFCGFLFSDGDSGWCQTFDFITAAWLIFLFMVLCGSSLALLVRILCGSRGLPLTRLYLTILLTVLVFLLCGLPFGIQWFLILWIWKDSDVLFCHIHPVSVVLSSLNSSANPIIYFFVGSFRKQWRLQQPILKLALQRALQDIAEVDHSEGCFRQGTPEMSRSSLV
Protocol: PSB-172656 inhibited MRGPRX2-mediated Ca^2+ mobilization in LAD2 cells (see Supplementary Fig. S4).
Fig. 6 PSB-172656 inhibits MRGPRX2-mediated mast cell degranulation. a LAD2 cells were incubated with buffer (control) or various concentrations of MRGPRX2 antagonist PSB-172656, subsequently exposed to substance P (SP, 0.3 µM), and β-hexosaminidase release was measured. […] Data are expressed as means ± SEM of 3 biological replicates. Statistical significance was determined by one-way ANOVA (Tukey’s multiple comparisons), compared to the effect of SP in the absence of PSB-172656 (P-value*** < 0.001). b Potential cytotoxicity of PSB-172656 was determined in 3-[4,5-dimethylthiazol-2-yl]-2,5-diphenyl tetrazolium bromide (MTT) assays performed on LAD2 cells. Cells were treated with different concentrations of PSB-172656 for 24 h at 37 °C, and the optic density value was determined at 570 nm (the viability of untreated cells corresponds to 100% cell viability). […] Mean fluorescence intensity (MFI) levels of e CD107a and f CD63 are depicted. […] Degranulation is characterized by the release of β-hexosaminidase, expressed as a percentage of the total content. h Human skin MCs were incubated with different concentrations of PSB-172656 for 30 min followed by stimulation with CST-14 (1 µM). […]
Degranulation as determined by β-hexosaminidase release was performed as described previously.[66],[67] […]

C3a-induced response = assay: Surface expression of CD107a and CD63 (flow cytometry), LAD2 cells activated with C3a; assay type: cell-based, human; conditions: 30 nM; C3a 3 nM
Protocol: The granule-associated proteins CD107a and CD63 externalize in the process of degranulation. Their quantification by flow cytometry is a reliable marker of mast cell activation, which is often used for the diagnosis of allergies and anaphylaxis in mast cell activation tests.[49],[50] Thus, the expression of CD107a and CD63 on the cell surface was determined to confirm the effects of PSB-172656 on SP-induced MRGPRX2-mediated degranulation. […] In addition to MRPGRX2, LAD2 cells also express a GPCR that is specifically activated by the complement component C3a.[51] Both receptors can activate Gαi/o proteins to promote MC activation.[48],[52]
MC degranulation was also measured by determining the cell surface expression of CD107a (Lysosomal-Associated Membrane Protein-1, LAMP-1) and CD63 (LAMP-3) after agonist stimulation.[48] LAD2 cells were preincubated with PSB-172656 or vehicle control for 5 min at 37 °C, then activated with SP (0.3 μM) and or C3a (3 nM) for 5 min at 37 °C. After 5 min of incubation, cells were fixed with 500 µL of 4% fixation buffer (Biolegend, Catalog 420801) for 15 min at room temperature. […] Cell surface expression of CD107a and CD63 was measured from the zombie-yellow negative population by a BD LSR II flow cytometer (San Jose, CA, USA) and analyzed by FlowJo software version 10.7.2 (Tree Star Inc., Ashland, OR, USA).[48],[50]

- IC50 (MRGPRX2): 5.26 nM
Structure (SMILES): CCc1c(C(C)C)[nH]c2nc3cc(F)c(F)cc3n2c1=O [Compound 24, 3-ethyl-7,8-difluoro-2-isopropylbenzo[4,5]imidazo [1,2-a] pyrimidin-4(1H)-one]
- effect on C3a-induced expression of CD107a and CD63 (C3a-induced response): did not affect
